In US20220056037A1 (SPV THERAPEUTICS INC., priority 2018, published 2022):
Like-named read-outs stand apart in the source and are kept apart here.

Columns and labels:
Assay in all cases: Inhibition assay, microfluidic LabChip (Nanosyn)
Format in all cases: biochemical
CDK4-CYCLIND1 = molecular target: T1, CDK4-CYCLIND1 (Homo sapiens, UniProt P11802)
T1 construct: purchased Invitrogen
Method: (§1) The reaction was terminated by the addition of EDTA. The plates were analyzed using a Caliper LabChip 3000.
(§2) Additional inhibition assays were performed as described above.

CDK6-CYCLIND3 = molecular target: T2, CDK6-CYCLIND3 (Homo sapiens, UniProt Q00534)
T2 construct: purchased Carna
Method: as §1, §2

CDK7 CyclinH = CDK7 CyclinH (Homo sapiens, UniProt P50613);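 further: values are IC50 from a concentration-response series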
Method: as §1, §2

CDK2-CYCLINA = molecular target: T3, CDK2-CYCLINA (Homo sapiens, UniProt P24941);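 further: values are IC50 from a concentration-response series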
T3 construct: purchased Millipore
Method: as §1, §2

CDK9-CYCLINT1 = molecular target: T4, CDK9-CYCLINT1 (Homo sapiens, UniProt P50750);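 further: values are IC50 from a concentration-response series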
T4 construct: purchased Carna
Method: as §1, §2

[1] = Table 2, ATP 200 μM, read-out: CDK4 IC50
[2] = Table 2, ATP 300 μM, read-out: CDK6 IC50
[3] = Table 3a, read-out: CDK4 CyclinD1 IC50
[4] = Table 3b, read-out: CDK4 CyclinD1 IC50
[5] = Table 3a, read-out: CDK6 CyclinD3 IC50
[6] = Table 3b, read-out: CDK6 CyclinD3 IC50

T2 sequence (Q00534 whole entry): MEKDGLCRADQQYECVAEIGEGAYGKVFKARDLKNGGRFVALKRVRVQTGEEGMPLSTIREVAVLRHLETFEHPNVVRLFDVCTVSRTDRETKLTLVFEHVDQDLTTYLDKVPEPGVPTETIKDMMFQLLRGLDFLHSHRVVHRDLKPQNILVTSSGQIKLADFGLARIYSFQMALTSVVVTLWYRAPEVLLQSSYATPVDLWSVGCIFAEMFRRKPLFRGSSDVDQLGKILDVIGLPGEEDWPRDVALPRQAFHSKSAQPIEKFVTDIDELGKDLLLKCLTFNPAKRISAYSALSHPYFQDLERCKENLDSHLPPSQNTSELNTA
T2 sequence (P30281 whole entry partner): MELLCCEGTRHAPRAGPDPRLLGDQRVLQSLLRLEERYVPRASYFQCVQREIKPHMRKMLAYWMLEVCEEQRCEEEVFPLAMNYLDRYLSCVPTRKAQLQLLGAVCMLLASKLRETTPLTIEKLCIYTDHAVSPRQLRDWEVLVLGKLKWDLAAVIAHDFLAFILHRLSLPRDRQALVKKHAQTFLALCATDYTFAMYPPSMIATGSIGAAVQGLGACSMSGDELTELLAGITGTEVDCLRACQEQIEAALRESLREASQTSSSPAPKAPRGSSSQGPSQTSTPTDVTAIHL
Sequence of CDK7 CyclinH (P50613 whole entry): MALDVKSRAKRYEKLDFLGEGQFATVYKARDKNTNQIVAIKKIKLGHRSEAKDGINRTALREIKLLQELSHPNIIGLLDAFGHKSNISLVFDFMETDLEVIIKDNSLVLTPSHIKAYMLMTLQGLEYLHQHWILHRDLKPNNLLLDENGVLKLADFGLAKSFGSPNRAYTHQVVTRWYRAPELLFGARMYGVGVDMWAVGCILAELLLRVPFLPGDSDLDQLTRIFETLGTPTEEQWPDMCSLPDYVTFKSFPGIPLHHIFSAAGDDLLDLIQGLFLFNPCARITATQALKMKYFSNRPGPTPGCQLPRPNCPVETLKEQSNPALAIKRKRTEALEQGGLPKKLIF
Sequence of CDK7 CyclinH (P51946 whole entry partner): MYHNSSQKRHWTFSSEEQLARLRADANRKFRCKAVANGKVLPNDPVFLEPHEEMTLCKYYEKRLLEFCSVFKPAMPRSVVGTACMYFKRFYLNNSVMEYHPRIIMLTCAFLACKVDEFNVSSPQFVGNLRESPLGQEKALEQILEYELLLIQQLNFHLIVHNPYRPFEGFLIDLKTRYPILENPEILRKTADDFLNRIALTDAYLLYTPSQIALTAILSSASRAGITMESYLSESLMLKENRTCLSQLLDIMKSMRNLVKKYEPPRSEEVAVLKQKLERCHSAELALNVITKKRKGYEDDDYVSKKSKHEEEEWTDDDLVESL
Sequence of CDK7 CyclinH (P51948 whole entry partner): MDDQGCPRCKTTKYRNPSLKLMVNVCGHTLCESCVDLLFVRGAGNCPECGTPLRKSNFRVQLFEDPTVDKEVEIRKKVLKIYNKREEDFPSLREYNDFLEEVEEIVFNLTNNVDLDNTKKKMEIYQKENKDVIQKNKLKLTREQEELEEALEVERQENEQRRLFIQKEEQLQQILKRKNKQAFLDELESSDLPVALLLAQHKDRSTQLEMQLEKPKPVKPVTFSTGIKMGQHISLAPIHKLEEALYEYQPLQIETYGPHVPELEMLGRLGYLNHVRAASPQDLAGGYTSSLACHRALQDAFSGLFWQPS
T4 sequence (P50750 whole entry): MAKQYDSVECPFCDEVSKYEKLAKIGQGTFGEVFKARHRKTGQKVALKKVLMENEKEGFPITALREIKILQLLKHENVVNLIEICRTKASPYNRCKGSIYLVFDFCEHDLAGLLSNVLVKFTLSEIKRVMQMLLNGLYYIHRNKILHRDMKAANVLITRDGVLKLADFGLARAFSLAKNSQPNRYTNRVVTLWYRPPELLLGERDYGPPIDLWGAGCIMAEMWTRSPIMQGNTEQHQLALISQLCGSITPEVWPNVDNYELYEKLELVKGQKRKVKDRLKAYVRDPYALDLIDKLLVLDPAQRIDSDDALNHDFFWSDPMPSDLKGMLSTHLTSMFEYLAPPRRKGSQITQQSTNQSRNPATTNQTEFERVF
T4 sequence (O60563 whole entry partner): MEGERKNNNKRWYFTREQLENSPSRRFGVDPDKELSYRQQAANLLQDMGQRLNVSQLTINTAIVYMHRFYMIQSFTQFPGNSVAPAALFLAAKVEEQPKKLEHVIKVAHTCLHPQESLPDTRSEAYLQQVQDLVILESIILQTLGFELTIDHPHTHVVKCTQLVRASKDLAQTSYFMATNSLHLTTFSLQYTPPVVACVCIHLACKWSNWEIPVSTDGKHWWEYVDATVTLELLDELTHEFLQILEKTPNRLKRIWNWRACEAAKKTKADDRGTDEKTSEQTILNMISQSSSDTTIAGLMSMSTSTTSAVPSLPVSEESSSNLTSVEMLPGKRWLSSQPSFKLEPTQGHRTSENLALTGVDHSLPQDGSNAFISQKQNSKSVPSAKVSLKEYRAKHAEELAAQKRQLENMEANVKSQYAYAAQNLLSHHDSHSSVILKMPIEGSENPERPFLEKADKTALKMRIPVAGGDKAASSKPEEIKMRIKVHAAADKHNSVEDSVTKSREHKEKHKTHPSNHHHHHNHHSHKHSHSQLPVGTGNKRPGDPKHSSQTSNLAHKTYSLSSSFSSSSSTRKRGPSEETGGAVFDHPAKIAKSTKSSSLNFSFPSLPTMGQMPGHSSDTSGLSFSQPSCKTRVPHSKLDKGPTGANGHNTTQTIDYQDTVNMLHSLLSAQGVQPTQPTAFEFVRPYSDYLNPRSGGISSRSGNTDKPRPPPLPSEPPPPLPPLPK
T1 sequence (P11802 whole entry): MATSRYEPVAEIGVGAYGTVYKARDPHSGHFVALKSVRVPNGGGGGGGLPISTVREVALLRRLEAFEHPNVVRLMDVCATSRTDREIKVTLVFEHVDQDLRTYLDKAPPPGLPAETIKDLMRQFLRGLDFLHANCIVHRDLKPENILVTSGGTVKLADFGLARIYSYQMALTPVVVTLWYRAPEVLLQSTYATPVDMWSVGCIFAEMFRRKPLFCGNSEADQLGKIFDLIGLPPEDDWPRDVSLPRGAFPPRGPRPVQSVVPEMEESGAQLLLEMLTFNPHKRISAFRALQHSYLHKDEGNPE
T1 sequence (P24385 whole entry partner): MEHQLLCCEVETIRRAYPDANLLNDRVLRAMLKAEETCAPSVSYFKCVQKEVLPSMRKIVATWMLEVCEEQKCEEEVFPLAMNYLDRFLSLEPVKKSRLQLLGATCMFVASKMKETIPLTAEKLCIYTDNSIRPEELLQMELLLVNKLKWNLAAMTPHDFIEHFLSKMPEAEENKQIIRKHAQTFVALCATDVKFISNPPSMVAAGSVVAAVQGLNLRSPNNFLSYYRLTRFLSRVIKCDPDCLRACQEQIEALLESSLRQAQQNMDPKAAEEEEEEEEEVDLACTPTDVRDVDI

## CN1CCN(c2ccc(Nc3ncc4c(F)c(C(=O)N(C)C)n(C5CCCC5)c4n3)cn2)CC1 [Compound A28, 7-cyclopentyl-5-fluoro-N,N-dimethyl-2-((6-(4-methylpiperazin-1-yl)pyridin-3-yl)amino)-7H-pyrrolo[2,3-d]pyrimidine-6-carboxamide]
CDK4-CYCLIND1; [1]
  IC50: 26.6 nM
CDK6-CYCLIND3; [2]
  IC50: 81.9 nM

## CN(C)C(=O)c1c(F)c2cnc(N3CCN(c4ccc(C#N)cc4)CC3)nc2n1C1CCCC1 [Compound A29, 2-(4-(4-cyanophenyl)piperazin-1-yl)-7-cyclopentyl-5-fluoro-N,N-dimethyl-7H-pyrrolo[2,3-d]pyrimidine-6-carboxamide]
CDK4-CYCLIND1; [1]
  IC50: > 30000 nM
CDK6-CYCLIND3; [2]
  IC50: > 30000 nM

## CN1CCN(c2ccc(Nc3ncc4cc(C(=O)N(C)C)n(C56CC(C5)C6)c4n3)cc2F)CC1 [Compound A30, 7-(bicyclo[1.1.1]pentan-1-yl)-2-((3-fluoro-4-(4-methylpiperazin-1-yl)phenyl)amino)-N,N-dimethyl-7H-pyrrolo[2,3-d]pyrimidine-6-carboxamide]
CDK4-CYCLIND1; [1]
  IC50: 10.7 nM
CDK6-CYCLIND3; [2]
  IC50: 31.7 nM

## Cc1cc(Nc2ncc3cc(C(=O)N(C)C)n(C45CC(C4)C5)c3n2)ccc1N1CCN(C(C)C)CC1 [Compound A31, 7-(bicyclo[1.1.1]pentan-1-yl)-2-((4-(4-isopropylpiperazin-1-yl)-3-methylphenyl)amino)-N,N-dimethyl-7H-pyrrolo[2,3-d]pyrimidine-6-carboxamide]
CDK4-CYCLIND1; [1]
  IC50: 9 nM
CDK6-CYCLIND3; [2]
  IC50: 33.7 nM

## CN(C)C(=O)c1cc2cnc(Nc3ccc(OCCN4CCCC4)c(F)c3)nc2n1C1CCCC1 [Compound A32, 7-cyclopentyl-2-((3-fluoro-4-(2-(pyrrolidin-1-yl)ethoxy)phenyl)amino)-N,N-dimethyl-7H-pyrrolo[2,3-d]pyrimidine-6-carboxamide]
CDK4-CYCLIND1; [1]
  IC50: 1.95 nM
CDK6-CYCLIND3; [2]
  IC50: 10.1 nM

## CN(C)C(=O)c1c(F)c2cnc(Nc3ccc(OCCN4CCCC4)c(F)c3)nc2n1C1CCCC1 [Compound A33, 7-cyclopentyl-5-fluoro-2-((3-fluoro-4-(2-(pyrrolidin-1-yl)ethoxy)phenyl)amino)-N,N-dimethyl-7H-pyrrolo[2,3-d]pyrimidine-6-carboxamide]
CDK4-CYCLIND1; [1]
  IC50: 10.1 nM
CDK6-CYCLIND3; [2]
  IC50: 37.4 nM

## Cc1cc(Nc2ncc3c(F)c(C(=O)N(C)C)n(C4CCCC4)c3n2)ccc1N1CCN(C(C)C)CC1 [Compound A34, 7-cyclopentyl-5-fluoro-2-((4-(4-isopropylpiperazin-1-yl)-3-methylphenyl)amino)-N,N-dimethyl-7H-pyrrolo[2,3-d]pyrimidine-6-carboxamide]
CDK4-CYCLIND1; [1]
  IC50: 26.2 nM
CDK6-CYCLIND3; [2]
  IC50: 103 nM

## COc1cc(Nc2ncc3c(F)c(C(=O)N(C)C)n(C4CCCC4)c3n2)ccc1N1CCN(C(C)C)CC1 [Compound A35, 7-cyclopentyl-5-fluoro-2-((4-(4-isopropylpiperazin-1-yl)-3-methoxyphenyl)amino)-N,N-dimethyl-7H-pyrrolo[2,3-d]pyrimidine-6-carboxamide]
CDK4-CYCLIND1; [1]
  IC50: 43.8 nM
CDK6-CYCLIND3; [2]
  IC50: 217 nM

## CC(C)N1CCN(c2ccc(Nc3ncc4c(F)c(C(=O)N(C)C)n(C5CCCC5)c4n3)cc2)CC1 [Compound A36, 7-cyclopentyl-5-fluoro-2-((4-(4-isopropylpiperazin-1-yl)phenyl)amino)-N,N-dimethyl-7H-pyrrolo[2,3-d]pyrimidine-6-carboxamide]
CDK4-CYCLIND1; [1]
  IC50: 8.17 nM
CDK6-CYCLIND3; [2]
  IC50: 32.5 nM

## CN1CCN(c2ccc(Nc3ncc4cc(C(=O)N(C)C)n(C56CC(C5)C6)c4n3)nc2)CC1 [Compound A38, 7-(bicyclo[1.1.1]pentan-1-yl)-N,N-dimethyl-2-((5-(4-methylpiperazin-1-yl)pyridin-2-yl)amino)-7H-pyrrolo[2,3-d]pyrimidine-6-carboxamide]
CDK4-CYCLIND1; [1]
  IC50: 15.4 nM
CDK6-CYCLIND3; [2]
  IC50: 23.5 nM

## CN1CCN(c2ccc(Nc3ncc4cc(C(=O)N(C)C)n(C56CC(C5)C6)c4n3)cc2F)CC1 [Compound A40, 7-(bicyclo[1.1.1]pentan-1-yl)-2-((3-fluoro-4-(4-methylpiperazin-1-yl)phenyl)amino)-N,N-dimethyl-7H-pyrrolo[2,3-d]pyrimidine-6-carboxamide]
CDK4-CYCLIND1; [1]
  IC50: 5.16 nM
CDK6-CYCLIND3; [2]
  IC50: 17.3 nM

## CCN1CCN(Cc2ccc(Nc3ncc4cc(C(=O)N(C)C)n(C56CC(C5)C6)c4n3)nc2)CC1 [Compound A41, 7-(bicyclo[1.1.1]pentan-1-yl)-2-((5-((4-ethylpiperazin-1-yl)methyl)pyridin-2-yl)amino)-N,N-dimethyl-7H-pyrrolo[2,3-d]pyrimidine-6-carboxamide]
CDK4-CYCLIND1; [1]
  IC50: 21.4 nM
CDK6-CYCLIND3; [2]
  IC50: 40.2 nM

## CN(C)C(=O)c1cc2cnc(Nc3ccc(N4CCOCC4)c(F)c3)nc2n1C12CC(C1)C2 [Compound A42, 7-(bicyclo[1.1.1]pentan-1-yl)-2-((3-fluoro-4-morpholinophenyl)amino)-N,N-dimethyl-7H-pyrrolo[2,3-d]pyrimidine-6-carboxamide]
CDK4-CYCLIND1; [1]
  IC50: 15 nM
CDK6-CYCLIND3; [2]
  IC50: 43.4 nM

## CC(C)N1CC=C(c2ccc(Nc3ncc4cc(C(=O)N(C)C)n(C56CC(C5)C6)c4n3)nc2)CC1 [Compound A43, 7-(bicyclo[1.1.1]pentan-1-yl)-2-((1′-isopropyl-1′,2′,3′,6′-tetrahydro-[3,4′-bipyridin]-6-yl)amino)-N,N-dimethyl-7H-pyrrolo[2,3-d]pyrimidine-6-carboxamide]
CDK4-CYCLIND1; [1]
  IC50: 35.6 nM
CDK6-CYCLIND3; [2]
  IC50: 32.9 nM

## CN(C)C(=O)c1cc2cnc(Nc3ccc(C(=O)N4CC[C@H](N(C)C)C4)cc3)nc2n1C12CC(C1)C2 [Compound A44, (S)-7-(bicyclo[1.1.1]pentan-1-yl)-2-((4-(3-(dimethylamino)pyrrolidine-1-carbonyl)phenyl)amino)-N,N-dimethyl-7H-pyrrolo[2,3-d]pyrimidine-6-carboxamide]
CDK4-CYCLIND1; [1]
  IC50: 2.45 nM
CDK6-CYCLIND3; [2]
  IC50: 10.1 nM

## CN(C)C(=O)c1cc2cnc(Nc3ccc(N4CCC(N5CCOCC5)CC4)cc3)nc2n1C12CC(C1)C2 [Compound A45, 7-(bicyclo[1.1.1]pentan-1-yl)-N,N-dimethyl-2-((4-(4-morpholinopiperidin-1-yl)phenyl)amino)-7H-pyrrolo[2,3-d]pyrimidine-6-carboxamide]
CDK4-CYCLIND1; [1]
  IC50: 29.3 nM
CDK6-CYCLIND3; [2]
  IC50: 73.3 nM

## CN(C)C(=O)c1cc2cnc(Nc3ccc(N4CC5(CNC5)C4)nc3)nc2n1C12CC(C1)C2 [Compound A46, 2-((6-(2,6-diazaspiro[3.3]heptan-2-yl)pyridin-3-yl)amino)-7-(bicyclo[1.1.1]pentan-1-yl)-N,N-dimethyl-7H-pyrrolo[2,3-d]pyrimidine-6-carboxamide]
CDK4-CYCLIND1; [1]
  IC50: 12.6 nM
CDK6-CYCLIND3; [2]
  IC50: 28.2 nM

## CN(C)C(=O)c1cc2cnc(Nc3ccc(N4CC5(CNC5)C4)c(F)c3)nc2n1C12CC(C1)C2 [Compound A47, 7-(bicyclo[1.1.1]pentan-1-yl)-2-((3-fluoro-4-(2,6-diazaspiro[3.3]heptan-2-yl)phenyl)amino)-N,N-dimethyl-7H-pyrrolo[2,3-d]pyrimidine-6-carboxamide]
CDK4-CYCLIND1; [1]
  IC50: 5.22 nM
CDK6-CYCLIND3; [2]
  IC50: 16.5 nM

## CN(C)C(=O)c1cc2cnc(Nc3ccc(N4CC5(CNC5)C4)cc3)nc2n1C12CC(C1)C2 [Compound A48, 2-((4-(2,6-diazaspiro[3.3]heptan-2-yl)phenyl)amino)-7-(bicyclo[1.1.1]pentan-1-yl)-N,N-dimethyl-7H-pyrrolo[2,3-d]pyrimidine-6-carboxamide]
CDK7 CyclinH; Table 3a
  IC50: 4860 nM
CDK7 CyclinH; Table 3b
  IC50: 4860 nM
CDK2-CYCLINA; Table 3a
  IC50: 666 nM
CDK2-CYCLINA; Table 3b
  IC50: 666 nM
CDK4-CYCLIND1; [3]
  IC50: 16.4 nM
CDK4-CYCLIND1; [4]
  IC50: 16.4 nM
CDK9-CYCLINT1; Table 3a
  IC50: 14.9 nM
CDK6-CYCLIND3; [5]
  IC50: 44 nM
CDK6-CYCLIND3; [6]
  IC50: 44 nM

## CN(C)C(=O)c1cc2cnc(NC3CCN(S(C)(=O)=O)CC3)nc2n1C12CC(C1)C2 [Compound A75, 7-(bicyclo[1.1.1]pentan-1-yl)-N,N-dimethyl-2-((1-(methylsulfonyl)piperidin-4-yl)amino)-7H-pyrrolo[2,3-d]pyrimidine-6-carboxamide]
CDK7 CyclinH; Table 3a
  IC50: 8130 nM
CDK7 CyclinH; Table 3b
  IC50: 8130 nM
CDK9-CYCLINT1; Table 3a
  IC50: 11.4 nM

## CN(C)C(=O)c1cc2cnc(Nc3ccc(N4CCNCC4)cc3)nc2n1C12CC(C1)C2 [Compound A83, 7-(bicyclo[1.1.1]pentan-1-yl)-N,N-dimethyl-2-((4-(piperazin-1-yl)phenyl)amino)-7H-pyrrolo[2,3-d]pyrimidine-6-carboxamide]
CDK7 CyclinH; Table 3a
  IC50: 3410 nM
CDK7 CyclinH; Table 3b
  IC50: 3410 nM
CDK2-CYCLINA; Table 3a
  IC50: 289 nM
CDK2-CYCLINA; Table 3b
  IC50: 289 nM
CDK4-CYCLIND1; [3]
  IC50: 6.75 nM
CDK4-CYCLIND1; [4]
  IC50: 6.75 nM
CDK9-CYCLINT1; Table 3a
  IC50: 12.7 nM
CDK6-CYCLIND3; [5]
  IC50: 15 nM
CDK6-CYCLIND3; [6]
  IC50: 15 nM

## CN1CCN(c2ccc(Nc3ncc4cc(C(=O)N(C)C)n(C56CC(C5)C6)c4n3)cc2)CC1 [Compound A84, 7-(bicyclo[1.1.1]pentan-1-yl)-N,N-dimethyl-2-((4-(4-methylpiperazin-1-yl)phenyl)amino)-7H-pyrrolo[2,3-d]pyrimidine-6-carboxamide]
CDK7 CyclinH; Table 3a
  IC50: 1430 nM
CDK7 CyclinH; Table 3b
  IC50: 1430 nM
CDK2-CYCLINA; Table 3a
  IC50: 185 nM
CDK2-CYCLINA; Table 3b
  IC50: 185 nM
CDK4-CYCLIND1; [3]
  IC50: 2.44 nM
CDK4-CYCLIND1; [4]
  IC50: 2.44 nM
CDK9-CYCLINT1; Table 3a
  IC50: 5.84 nM
CDK9-CYCLINT1; Table 3b
  IC50: 5.84 nM
CDK6-CYCLIND3; [5]
  IC50: 6.1 nM
CDK6-CYCLIND3; [6]
  IC50: 6.1 nM

## CN(C)C(=O)c1cc2cnc(Nc3ccc(N4CCNCC4)c(F)c3)nc2n1C12CC(C1)C2 [Compound A85, 7-(bicyclo[1.1.1]pentan-1-yl)-2-((3-fluoro-4-(piperazin-1-yl)phenyl)amino)-N,N-dimethyl-7H-pyrrolo[2,3-d]pyrimidine-6-carboxamide]
CDK7 CyclinH; Table 3a
  IC50: 1140 nM
CDK7 CyclinH; Table 3b
  IC50: 1140 nM
CDK2-CYCLINA; Table 3a
  IC50: 162 nM
CDK2-CYCLINA; Table 3b
  IC50: 162 nM
